SMILES strings stand for the structures.

For 4 compounds, IC50 and inhibition results are on record in patent publication US8053465B2, “Bicycloester derivative” (Kyorin Pharmaceutical Co., Ltd., priority 2004, dated 2011).

Experiment [1] deals with T1, plasma dipeptidylpeptidase IV (Homo sapiens, UniProt P27487).
T1 construct: 20 μL of plasma diluted 8-fold with saline in a well of a 96-well flat bottom plate; from tissue
Kind of experiment: In vitro dipeptidylpeptidase IV inhibitory activity (plasma, H-Gly-Pro-AMC fluorometry). The format is biochemical. The conditions noted are these: plasma diluted 8-fold, H-Gly-Pro-AMC.HBr substrate, room temperature 20 minutes. The method, then:
The concentration of free 7-amino-4-methyl-coumarin (AMC) generated by hydrolysis of H-Gly-Pro-AMC.HBr substrate by plasma dipeptidylpeptidase IV was determined by fluorometry.
A 20 μL of buffer (25 mmol/L hepes, 140 mmol/L sodium chloride, 1% bovine serum albumin, 80 mmol/L magnesium chloride hexahydrate, pH 7.4) containing each compound was added to 20 μL of plasma diluted 8-fold with saline in a well of a 96-well flat bottom plate. The plate was left at room temperature for 5 minutes and 10 μL of 0.1 mmol/L H-Gly-Pro-AMC.HBr solution was added to each well to initiate the reaction. […] Using a fluorescent plate reader, the free AMC concentration was determined by exciting the samples at 355 nm and measuring the fluorescence intensity at 460 nm.

Experiment [2] concerns the target T2, plasma dipeptidylpeptidase IV (Mus musculus, UniProt P28843).
T2 construct: The blood samples were centrifuged at 6000 rpm for 2 minutes to separate plasma; tissue Charles River Laboratories Japan; host or cells: plasma of male ICR mice
Kind of experiment: Inhibition of plasma dipeptidylpeptidase IV activity in mice by oral administration. The format is in vivo. The conditions noted are these: male ICR mice, 0.1 mg/mL suspension at 10 mL/kg, 30 minutes after administration. The method, then:
Each compound was suspended in 0.3% sodium carboxymethylcellulose to a concentration of 0.1 mg/mL. The preparation was orally administered to 8-week old male ICR mice (Charles River Laboratories Japan) at a dose of 10 mL/kg. Using an EDTA 2K-treated capillary tube, blood samples were collected from the tail vein before administration and 30 minutes after administration. The blood samples were centrifuged at 6000 rpm for 2 minutes to separate plasma. […] The inhibition was determined from the decrease in the enzymatic activity from the initial activity (% inhibition={(activity before administration−activity after administration)/(activity before administration)}×100).

T2 sequence (P28843 whole entry): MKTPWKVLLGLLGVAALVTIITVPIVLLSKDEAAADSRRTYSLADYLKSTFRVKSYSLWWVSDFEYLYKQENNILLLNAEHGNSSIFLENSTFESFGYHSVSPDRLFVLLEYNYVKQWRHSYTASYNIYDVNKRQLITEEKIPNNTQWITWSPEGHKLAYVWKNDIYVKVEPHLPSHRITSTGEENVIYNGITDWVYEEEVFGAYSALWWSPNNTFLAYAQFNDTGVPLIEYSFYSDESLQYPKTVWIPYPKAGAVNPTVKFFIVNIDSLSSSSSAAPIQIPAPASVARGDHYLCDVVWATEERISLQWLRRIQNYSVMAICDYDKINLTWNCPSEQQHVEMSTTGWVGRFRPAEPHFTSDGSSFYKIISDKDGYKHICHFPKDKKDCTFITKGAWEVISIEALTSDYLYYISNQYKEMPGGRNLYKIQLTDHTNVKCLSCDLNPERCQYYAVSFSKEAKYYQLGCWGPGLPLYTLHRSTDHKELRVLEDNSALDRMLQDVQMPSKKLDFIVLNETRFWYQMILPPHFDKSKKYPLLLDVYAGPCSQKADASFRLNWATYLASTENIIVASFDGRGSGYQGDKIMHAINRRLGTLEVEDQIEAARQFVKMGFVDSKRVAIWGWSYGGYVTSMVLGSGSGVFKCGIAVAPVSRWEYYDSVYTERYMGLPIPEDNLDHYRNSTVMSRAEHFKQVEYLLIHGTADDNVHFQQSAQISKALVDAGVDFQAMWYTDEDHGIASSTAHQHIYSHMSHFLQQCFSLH
T1 sequence (P27487 whole entry): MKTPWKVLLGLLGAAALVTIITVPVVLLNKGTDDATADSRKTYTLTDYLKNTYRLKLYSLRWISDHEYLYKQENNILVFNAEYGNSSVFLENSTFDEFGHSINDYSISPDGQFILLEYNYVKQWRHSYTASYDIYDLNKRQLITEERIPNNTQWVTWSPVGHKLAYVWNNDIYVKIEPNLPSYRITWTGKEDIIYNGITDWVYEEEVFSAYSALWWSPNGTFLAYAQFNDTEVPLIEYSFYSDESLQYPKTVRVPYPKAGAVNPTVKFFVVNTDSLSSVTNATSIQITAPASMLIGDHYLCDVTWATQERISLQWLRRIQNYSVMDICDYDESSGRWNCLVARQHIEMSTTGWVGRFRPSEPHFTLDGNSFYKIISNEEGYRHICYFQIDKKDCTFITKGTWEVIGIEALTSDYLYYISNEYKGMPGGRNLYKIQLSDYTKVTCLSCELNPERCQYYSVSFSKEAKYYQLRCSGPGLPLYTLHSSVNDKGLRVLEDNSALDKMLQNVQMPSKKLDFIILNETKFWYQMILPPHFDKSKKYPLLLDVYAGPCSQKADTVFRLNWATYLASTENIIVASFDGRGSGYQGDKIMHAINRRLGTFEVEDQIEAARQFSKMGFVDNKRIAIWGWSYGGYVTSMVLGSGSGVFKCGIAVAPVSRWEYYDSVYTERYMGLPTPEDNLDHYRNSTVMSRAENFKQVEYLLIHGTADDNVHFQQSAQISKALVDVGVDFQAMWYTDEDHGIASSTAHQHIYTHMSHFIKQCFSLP

In general, IC50 refers to the concentration that gives 50% inhibition. Low readings indicate higher potency, high ones lower potency. One may read the inhibition as the change of the read-out against control, counted positive when it falls. A higher inhibition goes with strong suppression. `CCOC(=O)C12CCC(NCC(=O)N3C[C@@H](F)C[C@H]3C#N)(CC1)CC2` [Example 1, (2S,4S)-1-[[N-(4-ethoxycarbonylbicyclo[2.2.2]oct-1-yl)amino]acetyl]-4-fluoropyrrolidine-2-carbonitrile] returned a half-inhibitory concentration (IC50) in experiment [1] of 0.25 nM. For the same compound, the inhibition at 100 µg/mL (stock) in experiment [2] was 100%.

On to `N#C[C@@H]1C[C@H](F)CN1C(=O)CNC12CCC(C(=O)OCC3CC3)(CC1)CC2` [Example 9, (2S,4S)-1-[[N-(4-cyclopropylmethyloxycarbonylbicyclo[2.2.2]oct-1-yl)amino]acetyl]-4-fluoropyrrolidine-2-carbonitrile], for which 0.48 nM corresponded to half-maximal inhibition in experiment [1] (IC50). In addition, the inhibition at 100 µg/mL (stock) in experiment [2] amounted to 94%.

Compound `N#C[C@@H]1C[C@H](F)CN1C(=O)CNC12CCC(C(=O)OCc3ccc(C(F)(F)F)cc3)(CC1)CC2` [Example 10, (2S,4S)-4-fluoro-1-[[N-[4-(4-trifluoromethylbenzyl)oxycarbonylbicyclo[2.2.2]oct-1-yl]amino]acetyl]pyrrolidine-2-carbonitrile] came in with a 50% inhibitory concentration (IC50) in experiment [1] of 0.23 nM.

As for `CC(C)COC(=O)C12CCC(NCC(=O)N3C[C@@H](F)C[C@H]3C#N)(CC1)CC2` [Example 11, (2S,4S)-4-fluoro-1-[[N-[4-(2-methylpropyl)oxycarbonylbicyclo[2.2.2]oct-1-yl]amino]acetyl]pyrrolidine-2-carbonitrile], the 50% inhibitory concentration (IC50) in experiment [1] was 0.13 nM. This compound displayed an inhibition at 100 µg/mL (stock) in experiment [2] of 93%.
